Measurements reported in US20170233413A1, “SUBSTITUTED ANNULATED PYRIMIDINES AND USE THEREOF” (Bayer Pharma Aktiengesellschaft, priority 2014, published 2017).

Experiments:
[1] = molecular target: T1, recombinant guanylate cyclase reporter cell line (Rattus norvegicus, UniProt P19686+P20595); assay: Effect on a recombinant guanylate cyclase reporter cell line; type: cell-based; settings: MEC = minimum effective concentration; in some cases means of individual determinations
T1 construct: expressed in transfected cells
T1 sequence (P19686 1-690): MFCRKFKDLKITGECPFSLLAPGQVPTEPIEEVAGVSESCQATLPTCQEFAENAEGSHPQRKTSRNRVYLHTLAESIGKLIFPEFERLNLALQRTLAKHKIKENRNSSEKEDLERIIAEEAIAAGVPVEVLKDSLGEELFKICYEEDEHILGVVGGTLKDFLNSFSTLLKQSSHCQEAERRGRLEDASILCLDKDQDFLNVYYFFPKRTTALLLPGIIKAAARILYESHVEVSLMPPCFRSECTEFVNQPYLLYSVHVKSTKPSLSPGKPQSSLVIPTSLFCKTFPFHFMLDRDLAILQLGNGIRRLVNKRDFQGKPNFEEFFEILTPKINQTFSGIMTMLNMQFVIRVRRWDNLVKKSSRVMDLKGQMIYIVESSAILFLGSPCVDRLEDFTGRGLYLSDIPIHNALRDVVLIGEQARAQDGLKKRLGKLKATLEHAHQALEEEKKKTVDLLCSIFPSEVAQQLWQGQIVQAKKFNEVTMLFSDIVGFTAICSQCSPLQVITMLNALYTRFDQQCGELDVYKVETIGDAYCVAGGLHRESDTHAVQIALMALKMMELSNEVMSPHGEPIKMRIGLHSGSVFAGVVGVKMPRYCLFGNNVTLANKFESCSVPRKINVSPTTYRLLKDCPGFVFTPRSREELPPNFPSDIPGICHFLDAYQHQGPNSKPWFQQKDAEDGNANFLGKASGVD
T1 sequence (P20595 1-619): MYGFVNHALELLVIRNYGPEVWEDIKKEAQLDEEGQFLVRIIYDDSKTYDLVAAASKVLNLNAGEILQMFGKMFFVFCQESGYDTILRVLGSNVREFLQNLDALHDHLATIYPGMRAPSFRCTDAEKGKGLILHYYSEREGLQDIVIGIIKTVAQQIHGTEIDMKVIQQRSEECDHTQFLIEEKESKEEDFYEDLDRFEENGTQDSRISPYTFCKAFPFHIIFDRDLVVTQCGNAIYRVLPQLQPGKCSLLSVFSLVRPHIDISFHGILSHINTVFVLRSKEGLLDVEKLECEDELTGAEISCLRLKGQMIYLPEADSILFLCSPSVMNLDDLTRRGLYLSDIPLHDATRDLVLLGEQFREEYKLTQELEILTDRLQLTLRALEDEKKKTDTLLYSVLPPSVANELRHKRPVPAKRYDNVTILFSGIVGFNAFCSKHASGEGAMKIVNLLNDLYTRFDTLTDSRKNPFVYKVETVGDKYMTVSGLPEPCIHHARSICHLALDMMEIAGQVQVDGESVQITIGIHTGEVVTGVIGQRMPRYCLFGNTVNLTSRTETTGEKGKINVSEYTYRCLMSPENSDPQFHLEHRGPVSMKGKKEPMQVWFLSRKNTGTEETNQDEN
Description: B-2. Effect on a Recombinant Guanylate Cyclase Reporter Cell Line
The cellular activity of the compounds of the invention is determined using a recombinant guanylate cyclase reporter cell line, as described in F. Wunder et al., Anal. Biochem. 2005, 339, 104-112. Representative values (MEC=minimum effective concentration) for the compounds of the invention are shown in the table below (Table 1B; in some cases as means of individual determinations): […]

[2] = molecular target: T2, human phosphodiesterase 5 (PDE 5) (Homo sapiens, UniProt O76074); assay: Inhibition of human phosphodiesterase 5 (PDE 5); type: biochemical; settings: PDE 5 preparation from human platelets; in some cases means of individual determinations
T2 construct: PDE 5 preparations are obtained from human platelets by disruption; from tissue; host or cells: human platelets
Description: B-3. Inhibition of Human Phosphodiesterase 5 (PDE 5)
PDE 5 preparations are obtained from human platelets by disruption (Microfluidizer®, 800 bar, 3 passes), followed by centrifugation (75 000 g, 60 min, 4° C.) and ion exchange chromatography of the supernatant on a Mono Q 10/10 column (linear sodium chloride gradient, elution with a 0.2-0.3M solution of sodium chloride in buffer (20 mM Hepes pH 7.2, 2 mM magnesium chloride). Fractions having PDE 5 activity are combined (PDE 5 preparation) and stored at −80° C.
To determine their in vitro action on human PDE 5, the test substances are dissolved in 100% DMSO and serially diluted. Typically, dilution series (1:3) from 200 μM to 0.091 μM are prepared (resulting final concentrations in the test: 4 μM to 0.0018 μM). In each case 2 μl of the diluted substance solutions are placed into the wells of microtitre plates (Isoplate-96/200W; Perkin Elmer). Subsequently, 50 μl of a dilution of the above-described PDE 5 preparation are added. The dilution of the PDE 5 preparation is chosen such that during the later incubation less than 70% of the substrate are converted (typical dilution: 1:100; dilution buffer: 50 mM tris/hydrochloric acid pH 7.5, 8.3 mM magnesium chloride, 1.7 mM EDTA, 0.2% BSA). The substrate, [8-^3H] cyclic guanosine-3′,5′-monophosphate (1 μCi/μl; Perkin Elmer), is diluted 1:2000 with assay buffer (50 mM tris/hydrochloric acid pH 7.5, 8.3 mM magnesium chloride, 1.7 mM EDTA) to a concentration of 0.0005 μCi/μl. By addition of 50 μl (0.025 μCi) of the diluted substrate, the enzyme reaction is finally started. The test mixtures are incubated at room temperature for 60 min and the reaction is stopped by adding 25 μl of a suspension of 18 mg/ml yttrium scintillation proximity beads in water (phosphodiesterase beads for SPA assays, RPNQ 0150, Perkin Elmer). The microtitre plates are sealed with a film and left to stand at room temperature for 60 min. Subsequently, the plates are analysed for 30 s per well in a Microbeta scintillation counter (Perkin Elmer). IC50 values are determined using the graphic plot of the substance concentration against percentage PDE 5 inhibition.

Row | SMILES | MEC [1] [µM] | IC50 [2] [nM]
1 | Cc1nc2c(cc1F)c(-c1nc3c(c(C(=O)NCC(C)(N)CC(F)F)n1)C(C)(C)C(=O)N3)nn2Cc1cccc(F)c1F (single isomer, unassigned) [Example 57] | 1 | 100
2 | Cc1nc2c(cc1F)c(-c1nc3c(c(C(N)=O)n1)C(C)(C)C(=O)N3)nn2Cc1cccc(F)c1F [Example 4, 2-[1-(2,3-Difluorobenzyl)-5-fluoro-6-methyl-1H-pyrazolo[3,4-b]pyridin-3-yl]-5,5-dimethyl-6-oxo-6,7-dihydro-5H-pyrrolo[2,3-d]pyrimidine-4-carboxamide] | 0.2 | 110
3 | Cc1nc2c(cc1F)c(-c1nc3c(c(C(=O)N(C)CCO)n1)C(C)(C)C(=O)N3)nn2Cc1cccc(F)c1F [Example 40] | 0.03 | 240
4 | Cc1nc2c(cc1F)c(-c1nc3c(c(C(N)=O)n1)C(C)(C(F)(F)F)C(=O)N3)nn2Cc1cccc(F)c1F (racemic) [Example 9, rac-2-[1-(2,3-difluorobenzyl)-5-fluoro-6-methyl-1H-pyrazolo[3,4-b]pyridin-3-yl]-5-methyl-6-oxo-5-(trifluoromethyl)-6,7-dihydro-5H-pyrrolo[2,3-d]pyrimidine-4-carboxamide] | 0.3 | 58
5 | Cc1nc2c(cc1F)c(-c1nc3c(c(C(=O)NC(C4CC4)C4CC4)n1)C(C)(C)C(=O)N3)nn2Cc1cccc(F)c1F [Example 39] | 0.3 | 34
6 | COCCNC(=O)c1nc(-c2nn(Cc3cccc(F)c3F)c3nc(C)c(F)cc23)nc2c1C(C)(C)C(=O)N2 [Example 41] | 0.065 | 88
7 | CC1(C)C(=O)Nc2nc(-c3nn(Cc4ccccc4F)c4ncc(F)cc34)nc(C(=O)N3CCCC3)c21 (single isomer, unassigned) [Example 54] | 0.03 | 1200
8 | Cc1nc2c(cc1F)c(-c1nc3c(c(C(N)=O)n1)C(C)(C(F)(F)F)C(=O)N3)nn2Cc1ccccc1F (single isomer, unassigned; ent-2) [Example 13, ent-2-[5-fluoro-1-(2-fluorobenzyl)-6-methyl-1H-pyrazolo[3,4-b]pyridin-3-yl]-5-methyl-6-oxo-5-(trifluoromethyl)-6,7-dihydro-5H-pyrrolo[2,3-d]pyrimidine-4-carboxamide (enantiomer A)] | 0.1 | 600

The remaining lines, values ahead:

Row | MEC [1] [µM] | IC50 [2] [nM] | SMILES
9 | 0.3 | 10 | CC1(CNC(=O)c2nc(-c3nn(Cc4ccccc4F)c4ncccc34)nc3c2C(C)(C)C(=O)N3)COC1 [Example 103, 2-[1-(2-fluorobenzyl)-1H-pyrazolo[3,4-b]pyridin-3-yl]-5,5-dimethyl-N-[(3-methyloxetan-3-yl)methyl]-6-oxo-6,7-dihydro-5H-pyrrolo[2,3-d]pyrimidine-4-carboxamide]
10 | 1 | 60 | CC1(C)C(=O)Nc2nc(-c3nn(Cc4ccccc4F)c4ncccc34)nc(C(=O)Nc3cc(F)cc(F)c3)c21 [Example 76, N-(3,5-difluorophenyl)-2-[1-(2-fluorobenzyl)-1H-pyrazolo[3,4-b]pyridin-3-yl]-5,5-dimethyl-6-oxo-6,7-dihydro-5H-pyrrolo[2,3-d]pyrimidine-4-carboxamide]
11 | 0.3 | 31 | CC1(C)C(=O)Nc2nc(-c3nn(Cc4ccccc4F)c4ncccc34)nc(C(=O)NCC3CCOC3)c21 (racemic) [Example 99, rac-2-[1-(2-fluorobenzyl)-1H-pyrazolo[3,4-b]pyridin-3-yl]-5,5-dimethyl-6-oxo-N-(tetrahydrofuran-3-ylmethyl)-6,7-dihydro-5H-pyrrolo[2,3-d]pyrimidine-4-carboxamide]
12 | 0.3 | 25 | CC1(C)C(=O)Nc2nc(-c3nn(Cc4ccccc4F)c4ncccc34)nc(C(=O)Nc3cnccn3)c21 [Example 108, 2-[1-(2-fluorobenzyl)-1H-pyrazolo[3,4-b]pyridin-3-yl]-5,5-dimethyl-6-oxo-N-(pyrazin-2-yl)-6,7-dihydro-5H-pyrrolo[2,3-d]pyrimidine-4-carboxamide]
13 | 0.3 | 30 | CCC(C)CNC(=O)c1nc(-c2nn(Cc3ccccc3F)c3ncccc23)nc2c1C(C)(C)C(=O)N2 (racemic) [Example 125, rac-2-[1-(2-fluorobenzyl)-1H-pyrazolo[3,4-b]pyridin-3-yl]-5,5-dimethyl-N-(2-methylbutyl)-6-oxo-6,7-dihydro-5H-pyrrolo[2,3-d]pyrimidine-4-carboxamide]
14 | 0.1 | 3.5 | CC1(C)C(=O)Nc2nc(-c3nn(Cc4ccccc4F)c4ncccc34)nc(C(=O)NC3CC3)c21 [Example 24, N-Cyclopropyl-2-[1-(2-fluorobenzyl)-1H-pyrazolo[3,4-b]pyridin-3-yl]-5,5-dimethyl-6-oxo-6,7-dihydro-5H-pyrrolo[2,3-d]pyrimidine-4-carboxamide]
15 | 1 | 87 | CC1(C)C(=O)Nc2nc(-c3nn(Cc4ccccc4F)c4ncccc34)nc(C(=O)Nc3cc(F)c(F)c(F)c3)c21 [Example 77, 2-[1-(2-fluorobenzyl)-1H-pyrazolo[3,4-b]pyridin-3-yl]-5,5-dimethyl-6-oxo-N-(3,4,5-trifluorophenyl)-6,7-dihydro-5H-pyrrolo[2,3-d]pyrimidine-4-carboxamide]
16 | 1 | 33 | CC1(C)C(=O)Nc2nc(-c3nn(Cc4ccccc4F)c4ncccc34)nc(C(=O)NC3CCOCC3)c21 [Example 98, 2-[1-(2-fluorobenzyl)-1H-pyrazolo[3,4-b]pyridin-3-yl]-5,5-dimethyl-6-oxo-N-(tetrahydro-2H-pyran-4-yl)-6,7-dihydro-5H-pyrrolo[2,3-d]pyrimidine-4-carboxamide]
17 | 0.3 | 13 | CC[C@H](C)NC(=O)c1nc(-c2nn(Cc3ccccc3F)c3ncccc23)nc2c1C(C)(C)C(=O)N2 [Example 134, N-[(2S)-butan-2-yl]-2-[1-(2-fluorobenzyl)-1H-pyrazolo[3,4-b]pyridin-3-yl]-5,5-dimethyl-6-oxo-6,7-dihydro-5H-pyrrolo[2,3-d]pyrimidine-4-carboxamide]
